Reference: US12077503B2, “Substituted cyclic amides and their use as herbicides” (FMC CORPORATION, priority 2015, dated 2024)

How the values were obtained:
Assay type in all cases: in vivo
Kochia (Kochia scoparia) [1] = assay: Test A preemergence; conditions: Bassia scoparia, pre-emergence, 240 h, read-out: Plant response rating, Kochia; for pest or weed control at 125 g/ha: 125 g ai/ha, visual rating after approx. 10 d, 0 to 100 scale where 0 is no effect and 100 is complete control
Summary of the method: (§1)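 Preemergence soil spray on seeded pots or post-emergence spray on 1–2 leaf plants, in loam–sand blend. Greenhouse ~10 d. Visual rating 0–100 against untreated plants.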

[2] = tested on: giant foxtail (Setaria faberii); assay: Test A preemergence; conditions: Setaria faberi, pre-emergence, 240 h, read-out: Plant response rating, Foxtail, Giant; for pest or weed control at 125 g/ha: 125 g ai/ha, visual rating after approx. 10 d, 0 to 100 scale where 0 is no effect and 100 is complete control
Summary of the method: as §1

[3] = tested on: pigweed (Amaranthus retroflexus); assay: Test A preemergence; conditions: Amaranthus retroflexus, pre-emergence, 240 h, read-out: Plant response rating, Pigweed; for pest or weed control at 125 g/ha: 125 g ai/ha, visual rating after approx. 10 d, 0 to 100 scale where 0 is no effect and 100 is complete control
[4] = tested on: ragweed (common ragweed, Ambrosia elatior); assay: Test A preemergence; conditions: Ambrosia artemisiifolia, pre-emergence, 240 h, read-out: Plant response rating, Ragweed; for pest or weed control at 125 g/ha: 125 g ai/ha, visual rating after approx. 10 d, 0 to 100 scale where 0 is no effect and 100 is complete control
Summary of the method: as §1

[5] = tested on: ryegrass, Italian (Italian ryegrass, Lolium multiflorum); assay: Test A preemergence; conditions: Lolium multiflorum, pre-emergence, 240 h, read-out: Plant response rating, Ryegrass, Italian; for pest or weed control at 125 g/ha: 125 g ai/ha, visual rating after approx. 10 d, 0 to 100 scale where 0 is no effect and 100 is complete control
Summary of the method: as §1

[6] = tested on: Galium (catchweed bedstraw, Galium aparine); assay: Test A postemergence; conditions: Galium, post-emergence, 240 h, read-out: Plant response rating, Galium; for pest or weed control at 125 g/ha: 125 g ai/ha, postemergence, visual injury after approximately 10 d, 0 to 100 scale (0 no effect, 100 complete control)
Summary of the method: as §1

Kochia (Kochia scoparia) [7] = assay: Test A postemergence; conditions: Bassia scoparia, post-emergence, 240 h, read-out: Plant response rating, Kochia; for pest or weed control at 125 g/ha: 125 g ai/ha, postemergence, visual injury after approximately 10 d, 0 to 100 scale (0 no effect, 100 complete control)
Summary of the method: as §1

[8] = tested on: barnyardgrass (Echinochloa crus-galli); assay: Test A postemergence; conditions: Echinochloa crus-galli, post-emergence, 240 h, read-out: Plant response rating, Barnyardgrass; for pest or weed control at 125 g/ha: 125 g ai/ha, postemergence, visual injury after approximately 10 d, 0 to 100 scale (0 no effect, 100 complete control)
Summary of the method: as §1

[9] = tested on: blackgrass (Alopecurus myosuroides); assay: Test A postemergence; conditions: Alopecurus myosuroides, post-emergence, 240 h, read-out: Plant response rating, Blackgrass; for pest or weed control at 125 g/ha: 125 g ai/ha, postemergence, visual injury after approximately 10 d, 0 to 100 scale (0 no effect, 100 complete control)
Summary of the method: as §1

corn (Zea mays) = assay: Test A postemergence; conditions: Zea mays, post-emergence, 240 h; for Corn plant response rating (crop injury, 0 = no effect, 100 = complete kill) at 125 g/ha: 125 g ai/ha, postemergence, visual injury after approximately 10 d, 0 to 100 scale (0 no effect, 100 complete control)
Summary of the method: as §1

[10] = tested on: giant foxtail (Setaria faberii); assay: Test A postemergence; conditions: Setaria faberi, post-emergence, 240 h, read-out: Plant response rating, Foxtail, Giant; for pest or weed control at 125 g/ha: 125 g ai/ha, postemergence, visual injury after approximately 10 d, 0 to 100 scale (0 no effect, 100 complete control)
Summary of the method: as §1

[11] = tested on: pigweed (Amaranthus retroflexus); assay: Test A postemergence; conditions: Amaranthus retroflexus, post-emergence, 240 h, read-out: Plant response rating, Pigweed; for pest or weed control at 125 g/ha: 125 g ai/ha, postemergence, visual injury after approximately 10 d, 0 to 100 scale (0 no effect, 100 complete control)
Summary of the method: as §1

[12] = tested on: ragweed (common ragweed, Ambrosia elatior); assay: Test A postemergence; conditions: Ambrosia artemisiifolia, post-emergence, 240 h, read-out: Plant response rating, Ragweed; for pest or weed control at 125 g/ha: 125 g ai/ha, postemergence, visual injury after approximately 10 d, 0 to 100 scale (0 no effect, 100 complete control)
Summary of the method: as §1

[13] = tested on: ryegrass, Italian (Italian ryegrass, Lolium multiflorum); assay: Test A postemergence; conditions: Lolium multiflorum, post-emergence, 240 h, read-out: Plant response rating, Ryegrass, Italian; for pest or weed control at 125 g/ha: 125 g ai/ha, postemergence, visual injury after approximately 10 d, 0 to 100 scale (0 no effect, 100 complete control)
Summary of the method: as §1

[14] = tested on: wheat (Triticum aestivum); assay: Test A postemergence; conditions: Triticum aestivum, post-emergence, 240 h, read-out: Plant response rating, Wheat
Summary of the method: as §1

[15] = Preemergence, 31 g ai/ha, 0 to 100 scale (0 no effect, 100 complete control)
[16] = Postemergence, 31 g ai/ha, visual injury after approx. 10 d, 0 to 100 scale, 0 no effect, 100 complete control
[17] = 500 g ai/ha, preemergence, 0 to 100 scale, 0 = no effect, 100 = complete control

SMILES	pest or weed control at 125 g/ha (Kochia (Kochia scoparia) [1]; preemergence) [%]	pest or weed control at 125 g/ha ([2]; preemergence) [%]	pest or weed control at 125 g/ha ([3]; preemergence) [%]	pest or weed control at 125 g/ha ([4]; preemergence) [%]	pest or weed control at 125 g/ha ([5]; preemergence) [%]	pest or weed control at 125 g/ha [6] [%]	pest or weed control at 125 g/ha (Kochia (Kochia scoparia) [7]) [%]	pest or weed control at 125 g/ha [8] [%]	pest or weed control at 125 g/ha [9] [%]	Corn plant response rating (crop injury, 0 = no effect, 100 = complete kill) at 125 g/ha (corn (Zea mays)) [%]	pest or weed control at 125 g/ha [10] [%]	pest or weed control at 125 g/ha [11] [%]	pest or weed control at 125 g/ha [12] [%]	pest or weed control at 125 g/ha [13] [%]	other results
Cc1cc(F)cc([C@H]2CN(C)C(=O)[C@@H]2C(=O)Nc2ccc(F)c(F)c2F)c1 [Compound 801]	70	90	30	60	20	60	40	90	60	60	90	30	50	60	pest or weed control at 31 g/ha (Kochia (Kochia scoparia) [1]; [15]): 40%; pest or weed control at 31 g/ha [2, 15]: 80%; pest or weed control at 31 g/ha [3, 15]: 30%; pest or weed control at 31 g/ha [4, 15]: 20%; pest or weed control at 31 g/ha [5, 15]: 0%; pest or weed control at 31 g/ha [6, 16]: 30%; pest or weed control at 31 g/ha (Kochia (Kochia scoparia) [7]; [16]): 20%; pest or weed control at 31 g/ha [8, 16]: 80%; pest or weed control at 31 g/ha [9, 16]: 20%; Corn plant response rating (crop injury, 0 = no effect, 100 = complete kill) at 31 g/ha (corn (Zea mays); [16]): 20%; pest or weed control at 31 g/ha [10, 16]: 70%; pest or weed control at 31 g/ha [11, 16]: 30%; pest or weed control at 31 g/ha [12, 16]: 0%; pest or weed control at 31 g/ha [13, 16]: 0%; plant injury at 31 g/ha [14, 16]: 0%
CSc1ccccc1NC(=O)[C@H]1C(=O)N(C)C[C@@H]1c1ccc(C)c(C)c1 [Compound 733]	20	90	20	70	40	20	0	90	0	0	80	0	0	20	pest or weed control at 500 g/ha (Kochia (Kochia scoparia) [1]; [17]): 80%; pest or weed control at 500 g/ha [2, 17]: 90%; pest or weed control at 500 g/ha [3, 17]: 60%; pest or weed control at 500 g/ha [4, 17]: 80%; pest or weed control at 500 g/ha [5, 17]: 60%; plant injury at 125 g/ha ([14]; 125 g ai/ha, postemergence, visual injury after approximately 10 d, 0 to 100 scale (0 no effect, 100 complete control)): 20%
